Patent US5847193A, “Labelled compound” (priority 1995, dated 1998)

Experiments:
[1] = test system: human or rat gliomacyte; details: cited from earlier work
[2] = test system: rat glioma; assay: Uptake of ^11 C-labelled L-DABA into rat glioma cells in culture; type: cell-based; details: medium with amino acid content close to the biological one, control phosphate-buffered saline, FIG. 7
Experimental: Biological applicability of the ^11 C-labelled L-DABA obtained in Example 3 was evaluated. The relationship between concentration of the L-DABA added to culture medium of rat glioma and uptake of radioactivity into the glioma cells in a given duration was investigated in a medium having an amino acid content close to the biological one, and for control, in a physiological saline buffered with phosphoric acid.

[3] = Sterility and exothermic substance check of the filtered ^11 C-labelled glutamic acid product; details: after sterilized 0.2 μm filter
Experimental: NaOH of 2.5M was added to a reaction solution containing the γ-cyano-α-aminobutyric acid of which cyano group carbon being labelled with positron nuclide ^11 C, as obtained in Example 6, and temperature of the mixture was raised to 135° C. After the lapse of 15 minutes, the reaction solution was mixed with 8 ml 50 mM NaH2 PO4, and the resultant mixture was passed through an anion exchange resin (800 mg AGI-x8 200-400 mesh hydroxide form). After washing with 50 mM NaH2 PO4 in an amount of 6 ml, the reaction product was eluted with 150 mM NaH2 PO4 (pH adjusted to 2.8 with phosphoric acid), and the elute was received in a receptacle containing 150 μl 8.5% phosphoric acid. The contents were passed through a sterilized filter having a pore diameter of 0.2 μm for collection in bial.

Structure (SMILES) | incorporation into gliomacyte [1] | further results
NCCC(N)C(=O)O (stereo not drawn) [2,4-Diaminobutyric acid (DABA), 2,4-Diaminobutyric acid] | found to be incorporated into human or rat gliomacyte | 
N[C@@H](CCC(=O)O)C(=O)O [L-glutamic acid] | found to be incorporated into human or rat gliomacyte | 
NC(=O)CC[C@H](N)C(=O)O [L-glutamine] | found to be incorporated into human or rat gliomacyte | 
N[11CH2]C[C@H](N)C(=O)O [^11 C-labelled L-DABA, L-2,4-diaminobutyric acid (L-DABA) labelled with ^11 C] |  | uptake of radioactivity into the glioma cells [2]: dependent on the concentration of it in culture medium
N[C@@H](CC[11C](=O)O)C(=O)O [^11 C-labelled glutamic acid] |  | exothermic substance [3]: no exothermic substance was detected; sterility of product [3]: germ-free
